18 compounds from patent publication US9745320B2, “Five-and-six-membered heterocyclic compound, and preparation method, pharmaceutical composition and use thereof” (SHANGHAI CHEMEXPLORER CO., LTD., priority 2013, dated 2017) can be followed below.

Type in all cases: biochemical
In one test the target is JAK2 (Homo sapiens, UniProt O60674). The experiment in a line: JAK 2 enzymatic inhibitory activity IC50 assay (Caliper conversion rate). Particulars: Km ATP, 28° C., 1 hour. How it is done: (§1) Biological effect: intracytoplasmic JAK 1,2,3 enzymatic inhibitory activity IC50 assay
(§2) JAK1 buffer solution: 25 mM HEPES, pH 7.5, 0.01% Brij-35, 0.01 M Triton. JAK2,3 buffer solution: 50 mM HEPES, pH 7.5, 0.0015% Brij-35.
(§3) 2. Compound was formulated in 100% DMSO in a concentration gradient, deposited to a 384-well plate with a final concentration of 2% of DMSO.
(§4) 3. JAK2,3 enzymes were diluted to having an optimum concentration with the following buffer: 50 mM HEPES, pH 7.5, 0.0015% Brij-35, 2 mM DTT. JAK1 enzyme was diluted to having an optimum concentration with the following buffer: 25 mM HEPES, pH 7.5, 0.01% Brij-35, 2 mM DTT, 0.01M Triton. Then they were transferred to a 384-well plate and incubated with the compound for a certain time.
(§5) 4. JAK2,3 substrate was diluted to having an optimum concentration with the following buffer: 50 mM HEPES, pH 7.5, 0.0015% Brij-35, 10 mM MgCl2, Km adenosine triphosphate. JAK1 substrate was diluted to having an optimum concentration with the following buffer: 25 mM HEPES, pH 7.5, 0.01% Brij-35, 10 mM MgCl2, 0.01 M Triton. Km adenosine triphosphate was added into 384-well plates to initiate reactions, and the reaction were carried out at 28° C. for 1 hour.
(§6) 5. Read the conversion rate by Caliper Reader, and the inhibition rate are calculated according to the average of two tests.

Another test deals with T1, JAK3 (Homo sapiens, UniProt P52333).
T1 sequence (P52333 1-1124): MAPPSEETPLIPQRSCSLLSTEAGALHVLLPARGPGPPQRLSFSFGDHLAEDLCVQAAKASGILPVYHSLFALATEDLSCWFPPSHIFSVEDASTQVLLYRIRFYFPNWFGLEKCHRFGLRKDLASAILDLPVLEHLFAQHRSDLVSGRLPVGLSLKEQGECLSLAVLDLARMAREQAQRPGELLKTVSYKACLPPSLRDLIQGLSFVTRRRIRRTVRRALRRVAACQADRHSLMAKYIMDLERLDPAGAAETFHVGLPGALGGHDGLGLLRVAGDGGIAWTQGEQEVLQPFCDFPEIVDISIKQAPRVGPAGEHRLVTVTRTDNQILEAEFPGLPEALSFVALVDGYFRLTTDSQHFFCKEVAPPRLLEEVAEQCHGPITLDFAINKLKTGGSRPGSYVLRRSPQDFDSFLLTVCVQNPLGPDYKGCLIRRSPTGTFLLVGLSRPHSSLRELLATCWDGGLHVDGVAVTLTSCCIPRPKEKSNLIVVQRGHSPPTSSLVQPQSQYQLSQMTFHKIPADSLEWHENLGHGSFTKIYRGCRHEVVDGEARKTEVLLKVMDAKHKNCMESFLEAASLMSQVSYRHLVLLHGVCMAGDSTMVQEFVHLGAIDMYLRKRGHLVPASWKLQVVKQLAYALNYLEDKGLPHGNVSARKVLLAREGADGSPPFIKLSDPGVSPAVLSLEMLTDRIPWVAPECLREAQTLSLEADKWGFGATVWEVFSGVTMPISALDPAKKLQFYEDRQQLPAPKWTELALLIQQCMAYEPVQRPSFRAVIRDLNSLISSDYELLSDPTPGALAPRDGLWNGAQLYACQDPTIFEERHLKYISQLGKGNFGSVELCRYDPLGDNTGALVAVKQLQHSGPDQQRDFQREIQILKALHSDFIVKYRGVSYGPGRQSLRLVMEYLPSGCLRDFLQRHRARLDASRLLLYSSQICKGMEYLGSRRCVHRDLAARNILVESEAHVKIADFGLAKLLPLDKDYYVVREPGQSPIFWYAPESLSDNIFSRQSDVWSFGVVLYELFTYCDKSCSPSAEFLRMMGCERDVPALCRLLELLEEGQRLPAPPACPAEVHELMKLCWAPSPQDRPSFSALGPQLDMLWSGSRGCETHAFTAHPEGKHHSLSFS
Nature of the test: JAK 3 enzymatic inhibitory activity IC50 assay (Caliper conversion rate). Particulars: Km ATP, 28° C., 1 hour; read-out: JAK 3 enzymatic inhibitory activity IC50. As to the method:
as §1, §2, §3
3. JAK2,3 enzymes were diluted to having an optimum concentration with the following buffer: 50 mM HEPES, pH 7.5, 0.0015% Brij-35, 2 mM DTT. JAK1 enzyme was diluted to having an optimum concentration with the following buffer: 25 mM HEPES, pH 7.5, 0.01% Brij-35, 2 mM DTT, 0.01M Triton. Then they were transferred to a 384-well plate and incubated with the compound for a certain time. […]
as §6

The next test deals with JAK1 (Homo sapiens, UniProt P23458). The experiment in a line: JAK 1 enzymatic inhibitory activity IC50 assay (Caliper conversion rate). To be noted: Km ATP, 28° C., 1 hour. As to the method: as §1, §2, §3, §4, §5, §6

Some results are limits rather than exact numbers.

JAK2, sequence (O60674 whole entry, species assumed): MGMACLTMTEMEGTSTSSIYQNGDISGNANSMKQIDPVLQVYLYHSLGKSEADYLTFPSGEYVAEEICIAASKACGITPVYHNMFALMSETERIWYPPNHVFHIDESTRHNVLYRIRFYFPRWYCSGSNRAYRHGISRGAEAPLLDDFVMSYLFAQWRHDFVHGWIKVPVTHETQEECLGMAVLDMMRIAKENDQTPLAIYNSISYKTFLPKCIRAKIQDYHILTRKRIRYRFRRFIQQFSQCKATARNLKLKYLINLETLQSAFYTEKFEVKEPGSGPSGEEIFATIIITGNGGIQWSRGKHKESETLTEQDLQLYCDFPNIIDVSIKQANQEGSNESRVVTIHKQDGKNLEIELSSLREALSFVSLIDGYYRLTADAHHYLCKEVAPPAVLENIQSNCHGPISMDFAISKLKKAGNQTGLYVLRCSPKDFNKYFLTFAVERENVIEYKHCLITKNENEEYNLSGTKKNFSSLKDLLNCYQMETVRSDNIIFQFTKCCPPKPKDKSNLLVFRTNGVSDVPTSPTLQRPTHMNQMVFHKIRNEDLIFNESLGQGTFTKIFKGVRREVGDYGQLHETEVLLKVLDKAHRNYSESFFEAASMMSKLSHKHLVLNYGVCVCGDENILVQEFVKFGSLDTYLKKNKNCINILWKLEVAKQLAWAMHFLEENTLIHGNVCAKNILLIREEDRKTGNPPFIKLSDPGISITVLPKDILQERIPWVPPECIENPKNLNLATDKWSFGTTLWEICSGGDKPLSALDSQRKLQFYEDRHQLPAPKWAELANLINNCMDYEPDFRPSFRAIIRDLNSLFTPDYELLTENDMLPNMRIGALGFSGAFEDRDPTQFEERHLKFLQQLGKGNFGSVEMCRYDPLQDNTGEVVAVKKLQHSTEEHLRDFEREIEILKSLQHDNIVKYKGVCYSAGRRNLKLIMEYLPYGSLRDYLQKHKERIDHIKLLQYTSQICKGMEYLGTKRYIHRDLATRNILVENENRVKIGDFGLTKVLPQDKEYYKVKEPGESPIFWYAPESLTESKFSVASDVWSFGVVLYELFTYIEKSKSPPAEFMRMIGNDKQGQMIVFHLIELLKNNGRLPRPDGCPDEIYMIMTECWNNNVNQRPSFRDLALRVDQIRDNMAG
JAK1, sequence (P23458 whole entry, species assumed): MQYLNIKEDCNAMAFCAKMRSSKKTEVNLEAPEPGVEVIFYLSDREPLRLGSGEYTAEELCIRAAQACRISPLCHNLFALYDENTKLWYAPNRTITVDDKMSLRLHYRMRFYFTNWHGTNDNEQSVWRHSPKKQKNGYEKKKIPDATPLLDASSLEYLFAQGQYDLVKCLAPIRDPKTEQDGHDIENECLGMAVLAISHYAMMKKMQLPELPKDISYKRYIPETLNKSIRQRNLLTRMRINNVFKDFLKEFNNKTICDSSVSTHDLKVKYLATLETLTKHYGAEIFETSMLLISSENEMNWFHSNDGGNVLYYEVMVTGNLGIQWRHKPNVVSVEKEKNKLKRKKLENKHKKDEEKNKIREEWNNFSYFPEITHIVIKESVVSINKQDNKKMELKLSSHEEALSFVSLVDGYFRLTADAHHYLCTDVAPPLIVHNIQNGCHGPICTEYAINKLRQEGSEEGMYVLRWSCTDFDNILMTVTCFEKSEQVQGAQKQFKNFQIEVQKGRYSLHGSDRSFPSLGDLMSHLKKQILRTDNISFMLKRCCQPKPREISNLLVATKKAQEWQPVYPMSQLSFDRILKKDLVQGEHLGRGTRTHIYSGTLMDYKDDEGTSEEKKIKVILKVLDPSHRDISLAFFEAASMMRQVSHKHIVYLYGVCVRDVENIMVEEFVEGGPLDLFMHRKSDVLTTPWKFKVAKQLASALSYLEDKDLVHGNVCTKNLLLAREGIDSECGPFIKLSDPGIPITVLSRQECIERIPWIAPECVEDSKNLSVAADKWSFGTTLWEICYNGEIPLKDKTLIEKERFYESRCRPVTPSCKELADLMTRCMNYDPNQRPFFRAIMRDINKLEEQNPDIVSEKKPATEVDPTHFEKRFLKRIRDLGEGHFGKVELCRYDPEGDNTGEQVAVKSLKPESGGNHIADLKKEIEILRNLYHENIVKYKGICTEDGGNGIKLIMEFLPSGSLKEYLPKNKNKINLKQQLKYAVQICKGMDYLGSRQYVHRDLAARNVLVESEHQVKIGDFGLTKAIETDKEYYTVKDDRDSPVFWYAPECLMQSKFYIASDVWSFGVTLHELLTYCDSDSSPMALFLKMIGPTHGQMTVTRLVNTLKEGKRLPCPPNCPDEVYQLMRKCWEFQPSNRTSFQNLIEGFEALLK

One may read the IC50 as the concentration that inhibits the measured activity by half. Regarding `CC(CC#N)n1cc(-c2nc(NCc3ccccc3)nc3ccsc23)cn1` (stereo not shown) [Compound T-01, 3-(4-(2-(Benzylamino)thieno[3,2-d]pyrimidin-4-yl)-1H-pyrazol-1-yl)butanenitrile], the IC50 on JAK2 and at JAK3 was above 1000 nM in each case.
For the compound `CC(CC#N)n1cc(-c2nc(Nc3ccccc3)nc3ccsc23)cn1` (stereo not shown) [Compound T-02, 3-(4-(2-(Phenylamino)thieno[3,2-d]pyrimidin-4-yl)-1H-pyrazol-1-yl)butanenitrile], the IC50 was 50 to 500 nM against JAK2 and above 1000 nM at JAK3.
In the case of `N#CCC(C1CCCC1)n1cc(-c2nc(Nc3ccccc3)nc3ccsc23)cn1` (stereo not shown) [Compound T-03, 3-Cyclopentyl-3-(4-(2-(phenylamino)thieno[3,2-d]pyrimidin-4-yl)-1H-pyrazol-1-yl)propanenitrile], the IC50 at JAK2 is below 50 nM; on JAK3, above 1000 nM.
On the same counts, the results for `N#CCC(C1CCCC1)n1cc(-c2nc(Nc3cncnc3)nc3ccsc23)cn1` (stereo not shown) [Compound T-04, 3-Cyclopentyl-3-(4-(2-(pyrimidin-5-ylamino)thieno[3,2-d]pyrimidin-4-yl)-1H-pyrazol-1-yl)propanenitrile] are below 50 nM and above 1000 nM.
With `CCS(=O)(=O)N1CC(CC#N)(n2cc(-c3nc(Nc4ccccc4)nc4ccsc34)cn2)C1` [Compound T-05, 2-(1-(Ethylsulfonyl)-3-(4-(2-(phenylamino)thieno[3,2-d]pyrimidin-4-yl)-1H-pyrazol-1-yl)azetidin-3-yl)acetonitrile], the IC50 against JAK1 was 50 to 500 nM; against JAK2, below 50 nM; at JAK3 it was 50 to 500 nM.
For the compound `CCS(=O)(=O)N1CC(CC#N)(n2cc(-c3nc(NC4CCOCC4)nc4ccsc34)cn2)C1` [Compound T-06, 2-(1-(Ethylsulfonyl)-3-(4-(2-((tetrahydro-2H-pyran-4-yl)amino)thieno[3,2-d]pyrimidin-4-yl)-1H-pyrazol-1-yl)azetidin-3-yl)acetonitrile], the IC50 at JAK2 and at JAK3 was above 1000 nM in each case.
As to `CCS(=O)(=O)N1CC(CC#N)(n2cc(-c3nc(Nc4ccc(N5CCOCC5)cc4)nc4ccsc34)cn2)C1` [Compound T-07, 2-(1-(Ethylsulfonyl)-3-(4-(2-((4-morpholinophenyl)amino)thieno[3,2-d]pyrimidin-4-yl)-1H-pyrazol-1-yl)azetidin-3-yl)acetonitrile], the IC50 against JAK1 was below 50 nM; against JAK2 it was below 50 nM; at JAK3, 50 to 500 nM.
`CCS(=O)(=O)N1CC(CC#N)(n2cc(-c3nc(Nc4ccc(OCCN5CCOCC5)cc4)nc4ccsc34)cn2)C1` [Compound T-08, 2-(1-(Ethylsulfonyl)-3-(4-(2-((4-(2-morpholinoethoxy)phenyl)amino)thieno[3,2-d]pyrimidin-4-yl)-1H-pyrazol-1-yl)azetidin-3-yl)acetonitrile]: the IC50 is below 50 nM at JAK2 and 50 to 500 nM on JAK3.
For `CCS(=O)(=O)N1CC(CC#N)(n2cc(-c3nc(Nc4ccc(OCCN5CCCC5)cc4)nc4ccsc34)cn2)C1` [Compound T-09, 2-(1-(Ethylsulfonyl)-3-(4-(2-((4-(2-(pyrrolidin-1-yl)ethoxy)phenyl)amino)thieno[3,2-d]pyrimidin-4-yl)-1H-pyrazol-1-yl)azetidin-3-yl)acetonitrile], the figures for the IC50 on JAK1, on JAK2 and at JAK3 were 50 to 500 nM, below 50 nM and 50 to 500 nM, respectively.
Consider `CCS(=O)(=O)N1CC(CC#N)(n2cc(-c3nc(Nc4ccc(-n5cncn5)cc4)nc4ccsc34)cn2)C1` [Compound T-10, 2-(3-(4-(2-((4-(1H-1,2,4-Triazol-1-yl)phenyl)amino)thieno[3,2-d]pyrimidin-4-yl)-1H-pyrazol-1-yl)-1-(ethylsulfonyl)azetidin-3-yl)acetonitrile], for which the results for the IC50 on JAK1, against JAK2 and on JAK3 were below 50 nM, below 50 nM and 50 to 500 nM, respectively.
On to `CCS(=O)(=O)N1CC(CC#N)(n2cc(-c3nc(Nc4ccc(-n5cccn5)cc4)nc4ccsc34)cn2)C1` [Compound T-11, 2-(3-(4-(2-((4-(1H-Pyrazol-1-yl)phenyl)amino)thieno[3,2-d]pyrimidin-4-yl)-1H-pyrazol-1-yl)-1-(ethylsulfonyl)azetidin-3-yl)acetonitrile], for which the IC50 at JAK1 was 50 to 500 nM; against JAK2, below 50 nM; at JAK3 it was above 1000 nM.
Taken in the same sequence, the figures for `CCS(=O)(=O)N1CC(CC#N)(n2cc(-c3nc(Nc4ccc(S(C)(=O)=O)cc4)nc4ccsc34)cn2)C1` [Compound T-12, 2-(1-(Ethylsulfonyl)-3-(4-(2-((4-(methylsulfonyl)phenyl)amino)thieno[3,2-d]pyrimidin-4-yl)-1H-pyrazol-1-yl)azetidin-3-yl)acetonitrile] were below 50 nM, below 50 nM and 50 to 500 nM.
As to `CCS(=O)(=O)N1CC(CC#N)(n2cc(-c3nc(Nc4cccc(N5CCOCC5)c4)nc4ccsc34)cn2)C1` [Compound T-13, 2-(1-(Ethylsulfonyl)-3-(4-(2-((3-morpholinophenyl)amino)thieno[3,2-d]pyrimidin-4-yl)-1H-pyrazol-1-yl)azetidin-3-yl)acetonitrile], the IC50 at JAK1 is 500 to 1000 nM; against JAK2, 50 to 500 nM; on JAK3 it was 500 to 1000 nM.
`CCS(=O)(=O)N1CC(CC#N)(n2cc(-c3nc(Nc4cncnc4)nc4ccsc34)cn2)C1` [Compound T-14, 2-(1-(Ethylsulfonyl)-3-(4-(2-(pyrimidin-5-ylamino)thieno[3,2-d]pyrimidin-4-yl)-1H-pyrazol-1-yl)azetidin-3-yl)acetonitrile]: the IC50 at JAK1 is 500 to 1000 nM; on JAK2, below 50 nM; on JAK3, above 1000 nM.
As to `CCS(=O)(=O)N1CC(CC#N)(n2cc(-c3nc(Nc4cnn(C)c4)nc4ccsc34)cn2)C1` [Compound T-15, 2-(1-(Ethylsulfonyl)-3-(4-(2-((1-methyl-1H-pyrazol-4-yl)amino)thieno[3,2-d]pyrimidin-4-yl)-1H-pyrazol-1-yl)azetidin-3-yl)acetonitrile], the figures for the IC50 against JAK1, on JAK2 and at JAK3 were below 50 nM, below 50 nM and 50 to 500 nM, respectively.
As to `N#CCNC(=O)c1ccc(-c2nc(Nc3ccccc3)nc3ccsc23)cc1` [Compound T-16, N-(Cyanomethyl)-4-(2-(phenylamino)thieno[3,2-d]pyrimidin-4-yl)benzamide], the IC50 against JAK1, against JAK2 and at JAK3 was above 1000 nM each time.
As for `CCS(=O)(=O)N1CC(CC#N)(n2cc(-c3nc(Nc4ccc(F)cc4)nc4ccsc34)cn2)C1` [Compound T-24, 2-(1-(Ethylsulfonyl)-3-(4-(2-((4-fluorophenyl)amino)thieno[3,2-d]pyrimidin-4-yl)-1H-pyrazol-1-yl)azetidin-3-yl)acetonitrile], the IC50 was below 50 nM at JAK2 and above 1000 nM on JAK3.
On the same counts, the results for `CCS(=O)(=O)N1CC(CC#N)(n2cc(-c3nc(NC4CCCCC4)nc4ccsc34)cn2)C1` [Compound T-27, 2-(3-(4-(2-(Cyclohexylamino)thieno[3,2-d]pyrimidin-4-yl)-1H-pyrazol-1-yl)-1-(ethylsulfonyl)azetidin-3-yl)acetonitrile] are above 1000 nM and above 1000 nM.
